# Measured values from publication PMC10169861, “Structural mechanism of human oncochannel TRPV6 inhibition by the natural phytoestrogen genistein” (Nature Communications, 2023).
# Changes are numbered by the printed parent chain. Values joined by “and” are separate entries in the source; they are usually repeats but may differ in a detail not shown here. Identical values can stand only once.
# Experiments:
# H582A mutant TRPV6 = molecular target: T1, H582A mutant TRPV6 (Homo sapiens, UniProt Q9H1D0, H622A); assay: Fura-2-based measurement of Ca2+ uptake, H582A mutant channels; type: cell-based; conditions: for normalized change in F340/F380 (Ca2+ uptake relative to no genistein): H582A
# T1 construct: Full-length wild-type or mutant human TRPV6 was expressed in HEK 293S cells as described above; expressed in transfected cells; host or cells: HEK 293S GnTI- cells, baculovirus (BacMam) transduction
# T1 sequence (Q9H1D0 41-765 H622A limits assumed): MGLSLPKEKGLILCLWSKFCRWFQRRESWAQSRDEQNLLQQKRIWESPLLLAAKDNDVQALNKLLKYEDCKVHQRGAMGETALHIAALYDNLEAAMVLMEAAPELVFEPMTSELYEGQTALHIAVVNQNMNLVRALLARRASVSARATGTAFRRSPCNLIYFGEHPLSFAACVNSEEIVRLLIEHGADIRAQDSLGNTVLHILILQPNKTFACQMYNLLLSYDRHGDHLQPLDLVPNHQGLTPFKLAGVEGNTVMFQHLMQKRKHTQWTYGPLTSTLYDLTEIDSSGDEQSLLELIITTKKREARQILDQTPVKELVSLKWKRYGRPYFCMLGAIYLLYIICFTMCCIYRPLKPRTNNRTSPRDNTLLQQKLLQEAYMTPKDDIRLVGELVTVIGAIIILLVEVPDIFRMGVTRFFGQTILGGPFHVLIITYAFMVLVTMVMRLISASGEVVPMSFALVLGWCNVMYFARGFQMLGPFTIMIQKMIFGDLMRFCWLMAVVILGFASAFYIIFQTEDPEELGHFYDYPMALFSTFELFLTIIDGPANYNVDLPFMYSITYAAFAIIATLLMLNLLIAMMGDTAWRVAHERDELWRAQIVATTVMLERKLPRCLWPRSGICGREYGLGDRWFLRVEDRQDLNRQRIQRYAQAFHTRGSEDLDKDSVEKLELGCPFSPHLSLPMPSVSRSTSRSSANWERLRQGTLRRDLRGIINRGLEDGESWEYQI
# H587A mutant TRPV6 = molecular target: T2, H587A mutant TRPV6 (Homo sapiens, UniProt Q9H1D0, H627A); assay: Fura-2-based measurement of Ca2+ uptake, H587A mutant channels; type: cell-based; conditions: for normalized change in F340/F380 (Ca2+ uptake relative to no genistein): H587A
# T2 construct: Full-length wild-type or mutant human TRPV6 was expressed in HEK 293S cells as described above; expressed in transfected cells; host or cells: HEK 293S GnTI- cells, baculovirus (BacMam) transduction
# T2 sequence (Q9H1D0 41-765 H627A limits assumed): T1 sequence (Q9H1D0 41-765 H622A limits assumed) with A582H, H587A
# [1] = molecular target: T3, wild-type human TRPV6 (hTRPV6) (Homo sapiens, UniProt Q9H1D0); assay: Fura-2-based ratiometric measurement of Ca2+ uptake in hTRPV6-expressing HEK 293S cells; type: cell-based; conditions: for normalized change in F340/F380 (Ca2+ uptake relative to no genistein): WT
# T3 construct: Full-length wild-type or mutant human TRPV6 was expressed in HEK 293S cells as described above; expressed in transfected cells; host or cells: HEK 293S GnTI- cells, baculovirus (BacMam) transduction
# T3 sequence (Q9H1D0 41-765 limits assumed): T1 sequence (Q9H1D0 41-765 H622A limits assumed) with A582H
# [2] = molecular target: T3, wild-type human TRPV6 (hTRPV6); assay: Whole-cell patch-clamp recording of hTRPV6-mediated currents in HEK 293S cells; type: cell-based; conditions: for TRPV6-mediated current amplitude at −60 mV, normalized to the value in the absence of genistein: WT
# H582A-H587A mutant TRPV6 = molecular target: T4, H582A-H587A mutant TRPV6 (Homo sapiens, UniProt Q9H1D0, H622A/H627A); assay: Fura-2-based measurement of Ca2+ uptake, H582A-H587A mutant channels; type: cell-based; conditions: for normalized change in F340/F380 (Ca2+ uptake relative to no genistein): H582A-H587A
# T4 construct: Full-length wild-type or mutant human TRPV6 was expressed in HEK 293S cells as described above; expressed in transfected cells; host or cells: HEK 293S GnTI- cells, baculovirus (BacMam) transduction
# T4 sequence (Q9H1D0 41-765 H622A/H627A limits assumed): T1 sequence (Q9H1D0 41-765 H622A limits assumed) with H587A
# human TRPV6 (human) = assay: cryo-EM structure; purified hTRPV6 in 150 mM NaCl, 20 mM Tris-HCl pH 8.0, 1 mM βME, 0.01% GDN, 0.001% CHS, with 2 mM genistein; two populations of particles: open (C4, 2.71 Å) and genistein-bound (C1, 2.66 Å)
# [3] = Conc 10, individual experiments
# [4] = Conc 30, individual experiments
# [5] = Conc 100, individual experiments
# [6] = Conc 300, individual experiments
# [7] = Conc 1000, individual experiments
# [8] = Conc 3000, individual experiments
# [9] = Conc 10000, individual experiments
compound,measurement,setting,value
"O=c1c(-c2ccc(O)cc2)coc2cc(O)cc(O)c12 [genistein, 4′,5,7-trihydroxyisoflavone]",IC50,H582A mutant TRPV6,184 ± 24 µM
same,Hill coefficient nHill,"H582A mutant TRPV6; H582A mutant, n = 3",0.73 ± 0.04
same,normalized change in F340/F380 (Ca2+ uptake relative to no genistein),"H582A mutant TRPV6; Conc 3, individual experiments",1.0287 and 0.8943 and 0.9077
same,normalized change in F340/F380 (Ca2+ uptake relative to no genistein),H582A mutant TRPV6; [3],0.885 and 0.8976 and 0.8985
same,normalized change in F340/F380 (Ca2+ uptake relative to no genistein),H582A mutant TRPV6; [4],0.8976 and 0.8451 and 0.809
same,normalized change in F340/F380 (Ca2+ uptake relative to no genistein),H582A mutant TRPV6; [5],0.6519 and 0.7074 and 0.5784
same,normalized change in F340/F380 (Ca2+ uptake relative to no genistein),H582A mutant TRPV6; [6],0.3755 and 0.336 and 0.3944
same,normalized change in F340/F380 (Ca2+ uptake relative to no genistein),H582A mutant TRPV6; [7],0.155 and 0.378 and 0.368
same,normalized change in F340/F380 (Ca2+ uptake relative to no genistein),H582A mutant TRPV6; [8],0.1504 and 0.2134 and 0.1508
same,IC50,H587A mutant TRPV6,267 ± 29 µM
same,Hill coefficient nHill,"H587A mutant TRPV6; H587A mutant, n = 3",0.67 ± 0.03
same,normalized change in F340/F380 (Ca2+ uptake relative to no genistein),H587A mutant TRPV6; [3],0.9155 and 0.8981 and 0.9014
same,normalized change in F340/F380 (Ca2+ uptake relative to no genistein),H587A mutant TRPV6; [4],0.7349 and 0.8633 and 0.7848
same,normalized change in F340/F380 (Ca2+ uptake relative to no genistein),H587A mutant TRPV6; [5],0.5614 and 0.5516 and 0.49
same,normalized change in F340/F380 (Ca2+ uptake relative to no genistein),H587A mutant TRPV6; [6],0.505 and 0.498 and 0.5741
same,normalized change in F340/F380 (Ca2+ uptake relative to no genistein),H587A mutant TRPV6; [7],0.2958 and 0.3277 and 0.2981
same,normalized change in F340/F380 (Ca2+ uptake relative to no genistein),H587A mutant TRPV6; [8],0.1683 and 0.1914 and 0.1575
same,normalized change in F340/F380 (Ca2+ uptake relative to no genistein),H587A mutant TRPV6; [9],0.08605 and 0.071 and 0.06959
same,normalized change in F340/F380 (Ca2+ uptake relative to no genistein),"[1]; Conc 10 (µM per Fig. 1c), individual experiments",0.9427 and 0.8061 and 0.8429
same,normalized change in F340/F380 (Ca2+ uptake relative to no genistein),[1]; [4],0.7049 and 0.7764 and 0.7537
same,normalized change in F340/F380 (Ca2+ uptake relative to no genistein),[1]; [5],0.5343 and 0.4706 and 0.5414
same,normalized change in F340/F380 (Ca2+ uptake relative to no genistein),[1]; [6],0.3064 and 0.3178 and 0.351
same,normalized change in F340/F380 (Ca2+ uptake relative to no genistein),[1]; [7],0.1486 and 0.1458 and 0.1663
same,normalized change in F340/F380 (Ca2+ uptake relative to no genistein),[1]; [8],0.07643 and 0.09271
same,IC50,"[1]; wild-type, 10 mM Ca2+ after pre-incubation, mean ± SEM, n = 3, read-out: IC50, inhibition of hTRPV6-mediated Ca2+ uptake",113 µM
same,"Hill coefficient nHill, inhibition of Ca2+ uptake","[1]; wild-type, n = 3",0.77 ± 0.02
same,IC50,[2],40.7 ± 2.6 µM
same,inhibition at 50 µM,"[2]; HEK293S, 50 µM genistein, –60 mV membrane potential, mean ± SEM, n = 13, read-out: inhibition of the hTRPV6-mediated current",54 ± 4%
same,"TRPV6-mediated current amplitude at −60 mV, normalized to the value in the absence of genistein","[2]; Conc 6.25 (µM per Supplementary Fig. 1), individual measurements",0.8818 and 0.9418 and 0.9228 and 0.9734 and 0.9342 and 0.9778 and 0.9793
same,"TRPV6-mediated current amplitude at −60 mV, normalized to the value in the absence of genistein","[2]; Conc 12.5, individual measurements",0.8695 and 0.8933 and 0.8898 and 0.8819 and 0.904 and 0.9294 and 0.929
same,"TRPV6-mediated current amplitude at −60 mV, normalized to the value in the absence of genistein","[2]; Conc 25, individual measurements",0.744 and 0.6559 and 0.7679 and 0.6876 and 0.7485 and 0.5641 and 0.5617
same,"TRPV6-mediated current amplitude at −60 mV, normalized to the value in the absence of genistein","[2]; Conc 50, individual measurements",0.3726 and 0.4985 and 0.3764 and 0.4722 and 0.3722 (2×)
same,"Hill coefficient nHill, current inhibition","[2]; current amplitude at −60 mV, logistic fit, n = 7",1.80 and 1.80 ± 0.13
same,IC50,H582A-H587A mutant TRPV6,318 ± 45 µM
same,Hill coefficient nHill,"H582A-H587A mutant TRPV6; H582A-H587A mutant, n = 3",0.71 ± 0.06
same,normalized change in F340/F380 (Ca2+ uptake relative to no genistein),H582A-H587A mutant TRPV6; [3],0.8831 and 0.8274 and 0.7934
same,normalized change in F340/F380 (Ca2+ uptake relative to no genistein),H582A-H587A mutant TRPV6; [4],0.9307 and 0.8133 and 0.7372
same,normalized change in F340/F380 (Ca2+ uptake relative to no genistein),H582A-H587A mutant TRPV6; [5],0.6996 and 0.5804 and 0.6176
same,normalized change in F340/F380 (Ca2+ uptake relative to no genistein),H582A-H587A mutant TRPV6; [6],0.6004 and 0.5392 and 0.6135 and 0.4739
same,normalized change in F340/F380 (Ca2+ uptake relative to no genistein),H582A-H587A mutant TRPV6; [7],0.3135 and 0.3303
same,normalized change in F340/F380 (Ca2+ uptake relative to no genistein),H582A-H587A mutant TRPV6; [8],0.1423 and 0.1604 and 0.1695
same,normalized change in F340/F380 (Ca2+ uptake relative to no genistein),H582A-H587A mutant TRPV6; [9],0.08246 and 0.05437 and 0.05709
human TRPV6 (natural protein),stoichiometry N,human TRPV6 (human),4
